Measured values taken from patent US10005736B1, “Pyridine and pyrimidine derivatives” (Hoffmann-La Roche Inc., priority 2015, dated 2018).

What was measured:
human EAAT3 = biological target: T1, human EAAT3 (Homo sapiens, UniProt P43005); assay: FLIPR Membrane Potential (FMP) assay, antagonist potency at human EAAT3; format: cell-based; conditions: HEK-293 cells stably expressing human EAAT3; L-glutamate as agonist at EC80; antagonists applied 15 min before; Kb by Cheng-Prusoff from IC50
T1 construct: expressed in transfected cells; host or cells: HEK-293
T1 sequence (P43005 1-524): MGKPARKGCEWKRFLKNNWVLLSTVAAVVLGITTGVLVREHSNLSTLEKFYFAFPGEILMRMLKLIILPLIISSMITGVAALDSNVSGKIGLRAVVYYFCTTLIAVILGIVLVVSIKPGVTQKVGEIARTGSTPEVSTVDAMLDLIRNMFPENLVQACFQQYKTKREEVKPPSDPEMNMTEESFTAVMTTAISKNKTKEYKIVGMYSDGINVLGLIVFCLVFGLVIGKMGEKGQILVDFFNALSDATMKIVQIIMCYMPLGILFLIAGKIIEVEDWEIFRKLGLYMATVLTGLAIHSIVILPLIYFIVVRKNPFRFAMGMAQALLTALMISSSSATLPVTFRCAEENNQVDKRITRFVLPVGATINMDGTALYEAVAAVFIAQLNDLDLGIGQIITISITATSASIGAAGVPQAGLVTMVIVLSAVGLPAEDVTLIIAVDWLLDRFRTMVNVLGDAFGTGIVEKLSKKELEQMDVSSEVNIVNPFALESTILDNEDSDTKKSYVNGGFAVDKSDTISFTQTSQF
Method: The FLIPR Membrane Potential (FMP) Assay
HEK-293 cells stably expressing human EAAT3 were seeded at 55 000 cells/well in growth medium (DMEM glutamate free (Invitrogen 11960-044), 1% Pen Strep (10 ml/1 GIBCO BRL N^o 15140-023), 10% FCS non dialysed heat inactivated, 5 mg/l puromycin) in poly-D-lysine treated 96-well black microtiter plates with clear-bottom. After 24 h, the growth medium was removed and […] of Krebs buffer (140 mM NaCl, 4.7 mM KCl, 2.5 mM CaCl2, 1.2 mM MgCl2, 11 mM HEPES, 10 mM D-glucose, pH=7.4) added. The cells were then loaded by adding 100 μl/well FMP assay dye (FLIPR Membrane Potential assay reagent, Molecular Devices). The 96-well plates were then incubated at 37° C. for 1 h. The depolarization of the cells will cause more dye to enter in the cells, where it will bind to intracellular proteins and lipids and cause an increase in the fluorescence signal. Antagonist potency at human EAAT3 was determined by using L-glutamate as agonist at a concentration which gives 80% of the maximum response. The antagonists were applied 15 min before the application of the agonist L-glutamate. The assays were performed at room temperature and measurements done by using a Fluorometric Imaging Plate Reader (FLIPR, Molecular Devices) and filter #2. Responses were measured as peak increase in fluorescence minus basal (i.e. fluorescence without addition of L-glutamate). Kb was determined using the Cheng-Prusoff equation Kb=IC50/[1+(A/EC50)], where IC50 is the concentration of the antagonist producing 50% inhibition, A is the concentration of the agonist against which the IC50 is being determined (at EC80) and EC50 is the concentration of the agonist producing 50% […].

Kb (human EAAT3) | melting point | SMILES
78 nM | 76 °C | Cc1ccncc1-c1cc(C(=O)NC(C)(C)C2CC2)cc(-c2ccc(F)cc2)c1 [Example 23, N-(2-Cyclopropylpropan-2-yl)-3-(4-fluorophenyl)-5-(4-methylpyridin-3-yl)-benzamide]
170 nM | 78 °C | Cc1ncccc1-c1cc(C(=O)NC(C)(C)C)cc(-c2ccc(F)cc2)c1 [Example 24, N-tert-Butyl-3-(4-fluorophenyl)-5-(2-methylpyridin-3-yl)-benzamide]
250 nM | 91 °C | Cc1ccc(-c2cc(C(=O)NC(C)(C)C)cc(-c3cncnc3C(C)C)c2)cc1 [Example 25, N-tert-Butyl-3-(4-methylphenyl)-5-(4-propan-2-ylpyrimidin-5-yl)-benzamide]
100 nM | 80 °C | CC(C)c1ncncc1-c1cc(C(=O)NC(C)(C)C)cc(-c2ccc(F)c(F)c2)c1 [Example 26, N-tert-Butyl-3-(3,4-difluorophenyl)-5-(4-propan-2-ylpyrimidin-5-yl)-benzamide]
180 nM | 91.5 °C | CC(C)c1ncncc1-c1cc(C(=O)NC(C)(C)C)cc(-c2ccc(C3CC3)cc2)c1 [Example 27, N-tert-Butyl-3-(4-cyclopropylphenyl)-5-(4-propan-2-ylpyrimidin-5-yl)-benzamide]
310 nM | 168 °C | CC(C)c1ncncc1-c1cc(C(=O)NC(C)(C)C)cc(-c2ccc(C(F)(F)F)cc2)c1 [Example 28, N-tert-Butyl-3-(4-propan-2-ylpyrimidin-5-yl)-5-[4-(trifluoromethyl)-phenyl]-benzamide]
720 nM | 83 °C | Cc1cc(-c2cc(C(=O)NC(C)(C)C)cc(-c3cncnc3C(C)C)c2)ccc1F [Example 29, N-tert-Butyl-3-(4-fluoro-3-methylphenyl)-5-(4-propan-2-ylpyrimidin-5-yl)-benzamide]
770 nM | 90 °C | Cc1ccc(-c2cc(C(=O)NC(C)(C)C)cc(-c3cncnc3C(C)C)c2)cc1F [Example 30, N-tert-Butyl-3-(3-fluoro-4-methylphenyl)-5-(4-propan-2-ylpyrimidin-5-yl)-benzamide]
320 nM | 93 °C | CC(C)c1ncncc1-c1cc(C(=O)NC(C)(C)C)cc(-c2ccc(Cl)c(F)c2)c1 [Example 31, N-tert-Butyl-3-(4-chloro-3-fluorophenyl)-5-(4-propan-2-ylpyrimidin-5-yl)-benzamide]
570 nM | 98 °C | CC(C)c1ncncc1-c1cc(C(=O)NC(C)(C)C)cc(-c2ccc(C#N)cc2)c1 [Example 32, N-tert-Butyl-3-(4-cyanophenyl)-5-(4-propan-2-ylpyrimidin-5-yl)-benzamide]
540 nM | 84 °C | COc1ccc(-c2cc(C(=O)NC(C)(C)C)cc(-c3cncnc3C(C)C)c2)cc1 [Example 33, N-tert-Butyl-3-(4-methoxyphenyl)-5-(4-propan-2-ylpyrimidin-5-yl)-benzamide]
400 nM | 102.5 °C | Cc1ccc(-c2cc(C(=O)NC(C)(C)C#N)cc(-c3cncnc3C(C)C)c2)cc1F [Example 34, N-(2-Cyanopropan-2-yl)-3-(3-fluoro-4-methylphenyl)-5-(4-propan-2-yl-pyrimidin-5-yl)-benzamide]
350 nM | 101 °C | Cc1cc(-c2cc(C(=O)NC(C)(C)C#N)cc(-c3cncnc3C(C)C)c2)ccc1F [Example 35, N-(2-Cyanopropan-2-yl)-3-(4-fluoro-3-methylphenyl)-5-(4-propan-2-yl-pyrimidin-5-yl)-benzamide]
270 nM | 97 °C | CC(C)c1ncncc1-c1cc(C(=O)NC(C)(C)C#N)cc(-c2ccc(F)cc2)c1 [Example 36, N-(2-Cyanopropan-2-yl)-3-(4-fluorophenyl)-5-(4-propan-2-yl-pyrimidin-5-yl)-benzamide]
210 nM | 98 °C | CC(C)c1ncncc1-c1cc(C(=O)NC(C)(C)C#N)cc(-c2ccc(C(F)(F)F)cc2)c1 [Example 37, N-(2-Cyanopropan-2-yl)-3-(4-propan-2-yl-pyrimidin-5-yl)-5-[4-(trifluoromethyl)-phenyl]-benzamide]
160 nM | 97 °C | CC(C)c1ncncc1-c1cc(C(=O)NC(C)(C)C#N)cc(-c2ccc(Cl)cc2)c1 [Example 38, 3-(4-Chlorophenyl)-N-(2-cyanopropan-2-yl)-5-(4-propan-2-yl-pyrimidin-5-yl)-benzamide]
270 nM | 96 °C | CC(C)(C)NC(=O)c1cc(-c2ccc(Cl)cc2)cc(-c2cncnc2C2CC2)c1 [Example 39, N-tert-Butyl-3-(4-chlorophenyl)-5-(4-cyclopropyl-pyrimidin-5-yl)-benzamide]
140 nM | 75 °C | CCc1ncncc1-c1cc(C(=O)NC(C)(C)C)cc(-c2ccc(Cl)cc2)c1 [Example 40, N-tert-Butyl-3-(4-chlorophenyl)-5-(4-ethyl-pyrimidin-5-yl)-benzamide]
